In paper PMC12340957, “Interactions between Lipopolysaccharide and Peptide Bacteriocin BacSp222 Influence Their Biological Activities” (ACS Infectious Diseases, 2025):
Ends that are not written are not given here. * marks the point of attachment. For = O=C*

How the values were obtained:
Gram-negative = conditions: ref number not given; cited from earlier work
Text: The present study sheds more light on the multiple biological activities of BacSp222 and further makes the image of this peptide even more complex.

[1] = test system: proenzyme Factor C from amebocyte lysate; test: Residual LPS activity, amebocyte lysate test (Pierce Chromogenic Endotoxin Quant Kit); format: biochemical; conditions: 4 μg BacSp222 preincubated with 3 pg LPS O111:B4 standard, 15 min, 37 °C, 60 μL PBS; 405 nm; mean n = 3
Description: The separate and independent assay used to determine the reduction of the LPS biological potential after incubation with BacSp222 was a test. Briefly, this approach utilizes the ability of endotoxin to activate a proenzyme Factor C from amebocyte lysate and allows for spectrophotometric measurement of the released active enzyme using a chromogenic synthetic peptide substrate. Due to high specificity and sensitivity, this assay is widely used to detect trace amounts of LPS. As presented in Figure , preincubation of LPS with a large excess of BacSp222 reduced LPS activity by ca. 50%.
The residual biological activity of LPS after preincubation with BacSp222 was evaluated by using a commercial assay kit. The reaction was performed for 4 μg of BacSp222, which was preincubated with 3 pg of LPS O111:B4 standard for 15 min at 37 °C in a final volume of 60 μL of PBS without Ca^2+ and Mg^2+. Simultaneously and independently, the same quantity of BacSp222 and LPS as above was preincubated separately as controls. After preincubation, the residual biological activity of endotoxin in all samples was determined using a spectrophotometric Pierce Chromogenic Endotoxin Quant Kit (Thermo, Waltham, MA, USA). The absorbance was measured at 405 nm using a microplate reader Synergy H1 Hybrid plate reader controlled by Gene5 version 2.00.18 software (BIOTEK Instruments, Winooski, VT, USA).

TLR2/TLR6 heterodimer = conditions: cited from earlier work
Text: A good example of such a multifunctional and immunomodulatory bacteriocin is the peptide BacSp222, produced by an opportunistic canine pathogen, strain 222. BacSp222 is a 50 amino acid long linear peptide encoded on a plasmid and is produced without a leader sequence, retaining a formylated N-terminal methionine.

FPR1 = test system: FPR1; set-up: method as in number not given; conditions: ref number not given; cited from earlier work
TLR4 receptor = biological target: T1, TLR4 receptor (Homo sapiens, UniProt O00206+Q9Y6Y9); test: HEK-Blue hTLR4 stimulation, SEAP reporter; format: cell-based; conditions: HEK-Blue hTLR4, BacSp222 0.016 to 2 μM without LPS, 17 h
T1 construct: host or cells: HEK-Blue hTLR4 (HEK293 reporter cells)
Description: The eukaryotic cells were cultured according to the methods described in previous publications. , The murine monocyte/macrophage RAW 264.7 cell line (ATCC TIB-71) and the murine monocyte/macrophage P388.D1 cell line (ATCC CCL-46) were purchased from the American Type Culture Collection (ATCC, Manassas, VA, USA). Human TLR4/NF-κB/SEAP (HEK-Blue hTLR4) and human TLR2 + TLR6/NF-κB/SEAP (HEK-Blue hTLR2/TLR6) reporter HEK293 cells were obtained from InvivoGen (San Diego, CA, USA). The passages of all TLR reporter HEK293 cells ranged from 7 to 15. All cells used in experiments were cultured under the following conditions: 5% CO2, 37 °C, and >95% humidity. RAW 264.7 and P388.D1 cells were cultured in Dulbecco’s modified Eagle’s medium (DMEM) containing 4.5 g/L glucose (GIBCO, Paisley, UK) and 5% (v/v) fetal bovine serum (FBS, GIBCO, Paisley, UK), whereas HEK-Blue hTLR4 and HEK-Blue hTLR2/TLR6 were cultured in DMEM containing 4.5 g/L glucose, 10% (v/v) FBS, 50 units/mL penicillin, and 50 μg/mL streptomycin (both from GIBCO, Paisley, UK). […]
Measurement of the activity of SEAP, secreted by the HEK-Blue cells to the media, was conducted as described previously. […] Then, the plate was incubated at 37 °C for 1 h in the dark, and the absorbance was measured at 620 nm using a Synergy H1 Hybrid microplate reader controlled by Gene5 version 2.00.18 software (BIOTEK Instruments, Winooski, VT, USA). […]

T1 sequence (O00206 24-839): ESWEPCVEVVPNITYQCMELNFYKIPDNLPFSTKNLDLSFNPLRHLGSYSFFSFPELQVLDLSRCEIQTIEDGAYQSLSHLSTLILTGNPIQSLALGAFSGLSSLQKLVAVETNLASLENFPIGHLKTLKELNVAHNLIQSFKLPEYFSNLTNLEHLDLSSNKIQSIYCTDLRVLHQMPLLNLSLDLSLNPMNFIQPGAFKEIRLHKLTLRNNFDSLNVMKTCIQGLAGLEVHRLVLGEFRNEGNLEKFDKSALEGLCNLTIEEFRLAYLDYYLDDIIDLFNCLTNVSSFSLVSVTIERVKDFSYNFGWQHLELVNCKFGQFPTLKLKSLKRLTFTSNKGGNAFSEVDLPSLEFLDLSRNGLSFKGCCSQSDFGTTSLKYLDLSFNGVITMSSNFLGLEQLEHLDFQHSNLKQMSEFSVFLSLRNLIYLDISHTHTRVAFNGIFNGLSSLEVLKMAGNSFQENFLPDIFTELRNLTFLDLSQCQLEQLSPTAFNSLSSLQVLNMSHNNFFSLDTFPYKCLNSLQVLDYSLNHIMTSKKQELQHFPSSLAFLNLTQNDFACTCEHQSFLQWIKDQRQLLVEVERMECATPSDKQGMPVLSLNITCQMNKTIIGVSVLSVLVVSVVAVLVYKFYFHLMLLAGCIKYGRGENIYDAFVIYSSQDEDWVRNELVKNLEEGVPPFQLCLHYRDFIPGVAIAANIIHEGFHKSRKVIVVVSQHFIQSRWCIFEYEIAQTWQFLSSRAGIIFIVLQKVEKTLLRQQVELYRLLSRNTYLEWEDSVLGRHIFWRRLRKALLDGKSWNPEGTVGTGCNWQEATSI
T1 sequence (Q9Y6Y9 17-160 limits assumed): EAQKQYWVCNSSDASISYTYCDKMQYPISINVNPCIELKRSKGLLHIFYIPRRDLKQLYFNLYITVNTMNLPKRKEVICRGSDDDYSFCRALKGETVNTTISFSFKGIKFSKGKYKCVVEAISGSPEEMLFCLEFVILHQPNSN

Substance: For-MAGLLRFLLSKGRALYNWAKSHVGKVWEWLKSGATYEQIKEWIENALGWR [BacSp222]
- activity against Gram-negative bacteria (Gram-negative): inactive against Gram-negative ones
- reduction of LPS activity [1]: ca. 50%
- affinity for TLR2/TLR6 heterodimer vs synthetic ligands (TLR2/TLR6 heterodimer; kinetic studies, vs ligands based on lipoteichoic acids or lipopeptides, ref number not given): lower affinity for the TLR2/TLR6 heterodimer than synthetic ligands
- recognition by TLR2/TLR6 (TLR2/TLR6 heterodimer; ref our recent studies (ref 15)): recognized by the TLR2/TLR6 receptor heterodimer
- activation of FPR1 (FPR1): cannot activate
- stimulation of TLR4 by BacSp222 alone (TLR4 receptor): none of the tested BacSp222 concentrations stimulated the TLR4 receptors
